Measurements: patent US4736051A, “Process for the preparation of an alkali metal salt of a diester phosphoric acid” (Kao Corporation, priority 1985, dated 1988)

What was measured:
Format in all cases: physicochemical
[1] = Phase diagram in aqueous system (FIG. 1)
[2] = Hygroscopicity of isolated powder; conditions: white powder
[3] = Lather amount (lather volume) of 5% aqueous solution of surface active agent; conditions: 100 g, 1000 rpm, 30 seconds agitation, 10 seconds standing, 40° C.
Protocol: The lather amount was measured according to the following manner. An aqueous solution containing 5% of surface active agent is prepared and 100 g of the aqueous solution is poured into a measuring cylinder, followed by agitation for 30 seconds by agitator. After agitation, the aqueous solution is placed as it is for 10 seconds, followed by subjecting to measurement of the lather volume. The revolution of the agitator is 1000 rpm and the agitator paddles are reversely rotated every 5 seconds. Temperature was maintained 40° C. during the measurement.

Craft point = assay: Craft point

Molecule: C=C(C)C(=O)OCC(O)COP(=O)([O-])OCCCCCCCCCCCC.[Na+] (stereo not drawn) [Compound (XIV), sodium dodecyl 2-hydroxy-3-methacryloyloxypropyl phosphate]
- phase diagram in aqueous systems [1]: liquid crystals

Molecule: CCCCCCCCCCCCOP(=O)([O-])OCC(O)C[N+](C)(C)C (stereo not drawn) [Example 14]
- hygroscopicity [2]: very hygroscopic

Molecule: CCCCCCCCCCCCOP(=O)([O-])[O-].[Na+].[Na+] [Sodium 1 dodecyl phosphate]
- lather amount (lather Vol. ml) [3]: 260 mL
- craft point (°C.) (Craft point): 32 °C

Molecule: Sodium 2 dodecyl phosphate
- lather amount (lather Vol. ml) [3]: 230 mL
- craft point (°C.) (Craft point): 20 °C
